The target of data set [1] is T1, human TRPV1 receptor (hTRPV1) (Homo sapiens, UniProt Q8NER1).
T1 construct: expressed in transfected cells
The data set is described as follows: Capsaicin activation assay (Ca2+ influx, FLIPR). Type of data set: cell-based. The settings on record: hTRPV1 in 1321N1 cells, 0.05 μM capsaicin. On the procedure:
Dulbecco's modified Eagle medium (D-MEM) (with 4.5 mg/mL glucose) and fetal bovine serum were obtained from Hyclone Laboratories, Inc. (Logan, Utah). Dulbecco's phosphate-buffered saline (D-PBS) (with 1 mg/mL glucose and 3.6 mg/l Na pyruvate, without phenol red), L-glutamine, hygromycin B, and Lipofectamine® were obtained from Life Technologies (Grand Island, N.Y.). G418 sulfate was obtained from Calbiochem-Novabiochem Corp. (San Diego, Calif.). Capsaicin (8-methyl-N-vanillyl-6-nonenamide) was obtained from Sigma-Aldrich, Co. (St. Louis, Mo.). Fluo-4 AM (N-[4-[6-[(acetyloxy)methoxy]-2,7-difluoro-3-oxo-3H-xanthen-9-yl]-2-[2-[2-[bis[2-[(acetyloxy)methoxy]-2-oxyethyl]amino]-5-methyl-phenoxy[ethoxy]phenyl]-N-[2-[(acetyloxy)methoxy]-2-oxyethyl]-glycine, (acetyloxy)methyl ester) was purchased from Molecular Probes (Eugene, Oreg.).
The cDNAs for the human TRPV1 receptor (hTRPV1) were isolated by reverse transcriptase-polymerase chain reaction (RT-PCR) from human small intestine poly A+ RNA supplied by Clontech (Palo Alto, Calif.) using primers designed surrounding the initiation and termination codons identical to the published sequences (Hayes et al. Pain 2000, 88, 205-215). The resulting cDNA PCR products were subcloned into pClneo mammalian expression vector (Promega) and fully sequenced using fluorescent dye-terminator reagents (Prism, Perkin-Elmer Applied Biosystems Division) and a Perkin-Elmer Applied Biosystems Model 373 DNA sequencer or Model 310 genetic analyzer. Expression plasmids encoding the hTRPV1 cDNA were transfected individually into 1321N1 human astrocytoma cells using Lipofectamine®. Forty-eight hours after transfection, the neomycin-resistant cells were selected with growth medium containing 800 μg/mL Geneticin (Gibco BRL). Surviving individual colonies were isolated and screened for TRPV1 receptor activity. Cells expressing recombinant homomeric TRPV1 receptors were maintained at 37° C. in D-MEM containing 4 mM L-glutamine, 300 μg/mL G418 (Cal-biochem) and 10% fetal bovine serum under a humidified 5% CO2 atmosphere.
The functional activity of compounds at the TRPV1 receptor was determined with a Ca^2+ influx assay and measurement of intracellular Ca^2+ levels ([Ca^2+]i). All compounds were tested over an 11-point half-log concentration range. Compound solutions were prepared in D-PBS (4× final concentration), and diluted serially across 96-well v-bottom tissue culture plates using a Biomek 2000 robotic automation workstation (Beckman-Coulter, Inc., Fullerton, Calif.). A 0.2 μM solution of the TRPV1 agonist capsaicin was also prepared in D-PBS. The fluorescent Ca^2+ chelating dye Fluo-4 AM was used as an indicator of the relative levels of [Ca^2+]i in a 96-well format using a Fluorescence Imaging Plate Reader (FLIPR)(Molecular Devices, Sunnyvale, Calif.). Cells were grown to confluency in 96-well black-walled tissue culture plates. Then, prior to the assay, the cells were loaded with 100 μL per well of Fluo-4 AM (2 μM, in D-PBS) for 1-2 hours at 23° C. Washing of the cells was performed to remove extracellular Fluo-4 AM (2×1 mL D-PBS per well), and afterward, the cells were placed in the reading chamber of the FLIPR instrument. 50 μL of the compound solutions were added to the cells at the 10 second time mark of the experimental run. Then, after a 3-minute time delay, 50 μL of the capsaicin solution was added at the, 190 second time mark (0.05 μM final concentration)(final volume=200 μL) to challenge the TRPV1 receptor. Time length of the experimental run was 240 seconds. Fluorescence readings were made at 1 to 5 second intervals over the course of the experimental run. The peak increase in relative fluorescence units (minus baseline) was calculated from the 190 second time mark to the end of the experimental run, and expressed as a percentage of the 0.05 μM capsaicin (control) response. […]

Another data set addresses T2, CYP3A4 (Homo sapiens, UniProt P08684).
T2 construct: human liver microsomes (BD Gentest, 450 μL; final concentration: 0.4 mg/mL); tissue BD Gentest; host or cells: human liver microsomes
Nature of the data set: CYP3A4 inhibition assay. Type of data set: in vitro ADME. The settings on record: human liver microsomes, substrate BZQ; for inhibition at 25 min, 2.2 µM: pH 7.4, probe 7-benzyloxyquiniline (BZQ), 50 μM final, read-out: CYP3A4 % inh @ 2.2 μM. Here is the method: Luciferin-H was used as the substrate for CYP2C9; 3-[2-(N,N-diethyl-N-methylammonium)ethyl]-7-methoxy-4-methylcoumarin (AMMC) was used as the substrate for CYP2D6; 7-benzyloxyquiniline (BZQ) was used as the substrate for CYP3A4.
Pre-Incubation Mixture Preparation for CYP3A4: A pre-incubation mixture was prepared by combining 100 mM phosphate buffer (19.35 mL; pH 7.4), human liver microsomes (BD Gentest, 450 μL; final concentration: 0.4 mg/mL), and 10 mM nicotinamide adenine dinucleotide phosphate in 65.4 mM MgCl2 hexahydrate (225 μL; final concentration: 100 μM and 654 μM, respectively). To this was mixture was added a ‘regeneration’ mixture (225 μL) of 333 mM glucose-6-phosphate and 40 U/mL glucose-6-phosphate dehydrogenase in 5 mM sodium citrate (final concentration: 3.3 mM, 0.4 U/mL, and 0.05 mM, respectively).
Substrate Mixture Preparation for CYP3A4: To a solution of 100 mM phosphate buffer, (2.36 mL, pH 7.4) was added 30 mM BZQ in acetonitrile (40 μL; final solution concentration 0.5 mM, final assay concentration 50 μM).
CYP3A4 Inhibiton Assay: To each well in the assay plate containing varying concentrations of test compound or control compound in DMSO (10 μL), CYP3A4 Pre-Incubation Mixture (90 μL) was added to the wells and the assay plate was pre-incubated for 10 minutes at 37° C., with shaking or rocking. A pre-read of each well was performed at 405 nm and 535 nm extinction/emission. CYP3A4 Substrate Mixture (10 μL) was added to all wells and the assay plate was incubated for an additional […] at 37° C., with shaking or rocking. Final DMSO concentration was 1%. A post-read of each well was then performed at 405 nm and 535 nm extinction/emission.
On the technique in general: Liver microsomes are a subcellular fraction often used to study metabolism.

T1 sequence (Q8NER1 whole entry): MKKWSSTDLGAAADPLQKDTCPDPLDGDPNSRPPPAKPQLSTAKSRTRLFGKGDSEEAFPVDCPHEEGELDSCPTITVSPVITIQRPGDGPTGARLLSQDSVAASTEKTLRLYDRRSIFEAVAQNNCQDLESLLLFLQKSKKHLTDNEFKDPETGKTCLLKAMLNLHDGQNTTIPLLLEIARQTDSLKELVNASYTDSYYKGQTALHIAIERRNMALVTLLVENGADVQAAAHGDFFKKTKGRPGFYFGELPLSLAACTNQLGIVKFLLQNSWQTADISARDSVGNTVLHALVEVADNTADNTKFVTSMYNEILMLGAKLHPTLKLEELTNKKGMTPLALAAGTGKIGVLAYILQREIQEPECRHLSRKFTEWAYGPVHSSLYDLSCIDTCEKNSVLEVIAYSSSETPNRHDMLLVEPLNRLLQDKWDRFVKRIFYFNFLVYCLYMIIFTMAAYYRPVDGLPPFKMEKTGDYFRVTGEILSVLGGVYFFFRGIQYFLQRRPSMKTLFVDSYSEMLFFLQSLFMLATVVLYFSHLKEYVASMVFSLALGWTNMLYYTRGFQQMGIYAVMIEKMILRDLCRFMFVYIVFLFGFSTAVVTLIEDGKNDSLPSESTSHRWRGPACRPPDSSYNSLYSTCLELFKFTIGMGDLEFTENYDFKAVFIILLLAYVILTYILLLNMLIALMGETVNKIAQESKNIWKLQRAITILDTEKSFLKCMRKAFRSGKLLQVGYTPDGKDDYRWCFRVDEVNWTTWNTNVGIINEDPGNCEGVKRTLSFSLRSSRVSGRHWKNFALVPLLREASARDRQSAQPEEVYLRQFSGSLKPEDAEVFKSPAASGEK
T2 sequence (P08684 whole entry): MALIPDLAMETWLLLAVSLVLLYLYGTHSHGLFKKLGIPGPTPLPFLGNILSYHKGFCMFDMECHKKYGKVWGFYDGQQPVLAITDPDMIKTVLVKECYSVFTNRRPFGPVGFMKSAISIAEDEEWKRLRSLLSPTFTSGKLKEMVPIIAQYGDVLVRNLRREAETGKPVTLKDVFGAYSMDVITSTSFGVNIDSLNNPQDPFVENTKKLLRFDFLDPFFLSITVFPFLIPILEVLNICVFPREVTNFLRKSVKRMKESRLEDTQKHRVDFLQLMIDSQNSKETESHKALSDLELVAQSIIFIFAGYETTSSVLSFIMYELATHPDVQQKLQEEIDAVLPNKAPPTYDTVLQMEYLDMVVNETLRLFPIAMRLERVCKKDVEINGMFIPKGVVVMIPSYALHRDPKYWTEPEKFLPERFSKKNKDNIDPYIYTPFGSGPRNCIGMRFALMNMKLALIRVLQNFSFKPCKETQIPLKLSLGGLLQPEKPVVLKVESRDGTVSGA

With `CCC1(CC)C[C@@H](NC(=O)Nc2cccc3cnccc23)c2cc(F)ccc2O1` [Example 28, N-[(4R)-2,2-diethyl-6-fluoro-3,4-dihydro-2H-chromen-4-yl]-N′-isoquinolin-5-ylurea], the IC50 (as a rule, the midpoint of a concentration-inhibition curve) in data set [1] amounted to 10 nM. The inhibition at 25 min, 2.2 µM on CYP3A4 turned out to be 19%.

In data set [1], `Cc1cc2c(NC(=O)N[C@@H]3CC(C)(C)Oc4c(OC(F)(F)F)cccc43)cccc2cn1` [Example 94, N-[(4R)-2,2-dimethyl-8-(trifluoromethoxy)-3,4-dihydro-2H-chromen-4-yl]-N′-(3-methylisoquinolin-5-yl)urea] came in with an IC50 of 9 nM. For the same compound, the inhibition at 25 min, 2.2 µM at CYP3A4 is 0%.

In data set [1], “N-[(4R)-2,2-diethyl-6-fluoro-3,4-dihydro-2H-chromen-4-yl]-N-(3-methylisoquinolin-5-yl)urea [Example 56]” had an IC50 of 15 nM. Further, the “CYP3A4 % inh @ 2.2 μM” value on CYP3A4 is on record as 17%.

In data set [1], `Cc1cc2c(NC(=O)N[C@@H]3CC(C)(C)Oc4c3ccc(F)c4F)cccc2cn1` [Example 113, N-[(4R)-7,8-difluoro-2,2-dimethyl-3,4-dihydro-2H-chromen-4-yl]-N′-(3-methylisoquinolin-5-yl)urea] displayed an IC50 of 12 nM. The inhibition at 25 min, 2.2 µM at CYP3A4 came to 9%.

For `CCC1(CC)C[C@@H](NC(=O)Nc2cccc3cnc(C)cc23)c2ccc(Cl)cc2O1` [Example 69, N-[(4R)-7-chloro-2,2-diethyl-3,4-dihydro-2H-chromen-4-yl]-N′-(3-methylisoquinolin-5-yl)urea], the IC50 in data set [1] came out at 4 nM. For the same compound, the inhibition at 25 min, 2.2 µM on CYP3A4 amounted to 0%.

`Cc1cc2c(NC(=O)N[C@@H]3CC(CF)(CF)Oc4c(F)cc(F)cc43)cccc2cn1` [Example 120, N-[(4R)-6,8-difluoro-2,2-bis(fluoromethyl)-3,4-dihydro-2H-chromen-4-yl]-N′-(3-methylisoquinolin-5-yl)urea]: inhibition in data set [1] was half-maximal at 43 nM (IC50). At CYP3A4, the inhibition at 25 min, 2.2 µM came to 25%.

`Cc1cc2c(NC(=O)N[C@@H]3CC(CF)(CF)Oc4c(OC(F)(F)F)cccc43)cccc2cn1` [Example 87, N-[(4R)-2,2-bis(fluoromethyl)-8-(trifluoromethoxy)-3,4-dihydro-2H-chromen-4-yl]-N′-(3-methylisoquinolin-5-yl)urea] showed an IC50 in data set [1] of 10 nM. Also, the inhibition at 25 min, 2.2 µM on CYP3A4 was determined as 0%.

`Cc1cc2c(NC(=O)N[C@@H]3CC(CF)(CF)Oc4ccccc43)cccc2cn1` [Example 101, N-[(4R)-2,2-bis(fluoromethyl)-3,4-dihydro-2H-chromen-4-yl]-N′-(3-methylisoquinolin-5-yl)urea] displayed an IC50 in data set [1] of 91 nM.

As to “N-[(4R)-7-fluoro-2,2,8-trimethyl-3,4-dihydro-2H-chromen-4-yl]-N-(3-methylisoquinolin-5-yl)urea [Example 111]”, the IC50 in data set [1] stood at 24 nM. Also, the “CYP3A4 % inh @ 2.2 μM” value at CYP3A4 is 0%.

Turning to `Cc1cc2c(NC(=O)N[C@@H]3CC(C)(C)Oc4cc(C(F)(F)F)ccc43)cccc2cn1` [Example 118, N-[(4R)-2,2-dimethyl-7-(trifluoromethyl)-3,4-dihydro-2H-chromen-4-yl]-N′-(3-methylisoquinolin-5-yl)urea], the IC50 in data set [1] turned out to be 19 nM. At CYP3A4, the inhibition at 25 min, 2.2 µM turned out to be 0%.

In data set [1], `CCCC1(CCC)C[C@@H](NC(=O)Nc2cccc3cnc(C)cc23)c2cccc(F)c2O1` [Example 68, N-[(4R)-8-fluoro-2,2-dipropyl-3,4-dihydro-2H-chromen-4-yl]-N′-(3-methylisoquinolin-5-yl)urea] displayed an IC50 of 16 nM. Further, the inhibition at 25 min, 2.2 µM at CYP3A4 amounted to 6.4%.

In the case of “N-[(4R)-6,8-difluoro-2,2-dimethyl-3,4-dihydro-2H-chromen-4-yl]-N-(3-methylisoquinolin-5-yl)urea [Example 98]”, the IC50 in data set [1] is 17 nM. The “CYP3A4 % inh @ 2.2 μM” value at CYP3A4 was found to be 0%.

`CC1(C)C[C@@H](NC(=O)Nc2cccc3cnccc23)c2ccc(C(F)(F)F)cc2O1` [Example 34, N-[(4R)-2,2-dimethyl-7-(trifluoromethyl)-3,4-dihydro-2H-chromen-4-yl]-N′-isoquinolin-5-ylurea] came in with an IC50 in data set [1] of 5 nM. In addition, at CYP3A4, the inhibition at 25 min, 2.2 µM was 36%.

As for `CC1(C)C[C@@H](NC(=O)Nc2cccc3cnccc23)c2cc(F)ccc2O1` [Example 5, N-[(4R)-6-fluoro-2,2-dimethyl-3,4-dihydro-2H-chromen-4-yl]-N′-isoquinolin-5-ylurea], inhibition in data set [1] was half-maximal at 23 nM (IC50). Besides, the inhibition at 25 min, 2.2 µM at CYP3A4 worked out at 61%.

Compound `Cc1cc2c(NC(=O)N[C@@H]3CC(CF)(CF)Oc4cc(Cl)ccc43)cccc2cn1` [Example 84, N-[(4R)-7-chloro-2,2-bis(fluoromethyl)-3,4-dihydro-2H-chromen-4-yl]-N′-(3-methylisoquinolin-5-yl)urea] displayed an IC50 in data set [1] of 11 nM.

In data set [1], `Cc1cc2c(NC(=O)N[C@@H]3CC(C)(C)Oc4c3ccc(F)c4Cl)cccc2cn1` [Example 110, N-[(4R)-8-chloro-7-fluoro-2,2-dimethyl-3,4-dihydro-2H-chromen-4-yl]-N′-(3-methylisoquinolin-5-yl)urea] yielded an IC50 of 23 nM. In addition, at CYP3A4, the inhibition at 25 min, 2.2 µM was 0.25%.

In turn, `CC1(C)C[C@@H](NC(=O)Nc2cccc3cnccc23)c2ccc(F)cc2O1` [Example 23, N-[(4R)-7-fluoro-2,2-dimethyl-3,4-dihydro-2H-chromen-4-yl]-N′-isoquinolin-5-ylurea] registered an IC50 in data set [1] of 6 nM. Besides, the inhibition at 25 min, 2.2 µM on CYP3A4 was 69%.

In data set [1], “N-[(4R)-2,2-diethyl-8-fluoro-3,4-dihydro-2H-chromen-4-yl]-N-(3-methylisoquinolin-5-yl)urea [Example 62]” registered an IC50 of 4 nM. In addition, the “CYP3A4 % inh @ 2.2 μM” value at CYP3A4 was 0%.

On to `Cc1cc2c(NC(=O)N[C@@H]3CC(CF)(CF)Oc4cc(Br)ccc43)cccc2cn1` [Example 102, N-[(4R)-7-bromo-2,2-bis(fluoromethyl)-3,4-dihydro-2H-chromen-4-yl]-N′-(3-methylisoquinolin-5-yl)urea], for which the IC50 in data set [1] came out at 14 nM.

Source of the values: patent publication US8604053B2, “TRPV1 antagonists” (AbbVie Inc., priority 2008, dated 2013).
